Source: patent US9737504B2, “Dihydroorotic and acid dehydrogenase inhibitor” (NAI INC., priority 2012, dated 2017)
Where two headings read alike, the source gives them in different places.

Key:
HCT-116 = experiment: JFCR39 cancer cell growth inhibition test, HCT-116; format: cell-based; conditions: Homo sapiens; HCT-116, Co (Colon)
HT-29 = experiment: JFCR39 cancer cell growth inhibition test, HT-29; format: cell-based; conditions: Homo sapiens; HT-29, Co (Colon)
human DHOD = human DHOD (Homo sapiens, UniProt Q02127); experiment: Measurement of DHOD inhibitory activity (DCIP reduction, end point assay); format: biochemical
human DHOD, sequence (Q02127 whole entry): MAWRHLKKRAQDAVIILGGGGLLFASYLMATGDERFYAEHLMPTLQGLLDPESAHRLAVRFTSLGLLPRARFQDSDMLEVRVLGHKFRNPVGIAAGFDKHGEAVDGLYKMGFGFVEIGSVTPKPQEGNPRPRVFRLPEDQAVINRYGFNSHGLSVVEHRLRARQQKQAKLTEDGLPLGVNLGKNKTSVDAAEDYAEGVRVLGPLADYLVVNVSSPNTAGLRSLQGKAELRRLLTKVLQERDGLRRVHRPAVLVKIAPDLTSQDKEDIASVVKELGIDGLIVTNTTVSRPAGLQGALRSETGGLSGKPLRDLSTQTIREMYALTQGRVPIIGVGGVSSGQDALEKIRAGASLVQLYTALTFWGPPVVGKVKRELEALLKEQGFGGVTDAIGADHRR
Procedure: The compounds of the present invention were used and measured for their DHOD inhibitory activity at concentrations of 200 nM and 1000 nM.
Reduction of DCIP was measured at 600 nm over 20 minutes.

MKN7 = experiment: JFCR39 cancer cell growth inhibition test, MKN7; format: cell-based; conditions: Homo sapiens, MKN-7; MKN7, St (Stomac)
OVCAR-3 = experiment: JFCR39 cancer cell growth inhibition test, OVCAR-3; format: cell-based; conditions: Homo sapiens; OVCAR-3, Ov (Ovarian)
SK-OV-3 = experiment: JFCR39 cancer cell growth inhibition test, SK-OV-3; format: cell-based; conditions: Homo sapiens; SK-OV-3, Ov (Ovarian)
NCI-H460 = experiment: JFCR39 cancer cell growth inhibition test, NCI-H460; format: cell-based; conditions: Homo sapiens; NCI-H460, Lu (Lung)
[1] = system: Panc-1 cells (human pancreatic cells); experiment: Inhibitory effect on Panc-1 cells, control vs hypoxic and subnutritional conditions; format: cell-based; conditions: for IC50: Homo sapiens
Procedure: (§1) For these reasons, cells of colorectal and pancreatic cancers, each being regarded as intractable, were used to test the inhibitory effect of compounds under hypoxic and subnutritional conditions. Moreover, the same test was also performed on normal skin cells.
The cells used were two types of cancer cells, i.e., DLD-1 cells (human colorectal cancer cells) and Panc-1 cells (human pancreatic cells), as well as HDF cells (human dermal fibroblast cells). Culture conditions were set as follows: 21% oxygen with glucose and […] (10% FBS) for the control group, and 1% oxygen without glucose and […] (10% FBS) for the hypoxic and subnutritional group. The results obtained are shown in Tables 3, 4 and 5, as well as FIGS. 1, 2 and 3.

HCC2998 = experiment: JFCR39 cancer cell growth inhibition test, HCC2998; format: cell-based; conditions: Homo sapiens, HCC 2998; HCC2998, Co (Colon)
BSY-1 = experiment: JFCR39 cancer cell growth inhibition test, BSY-1; format: cell-based; conditions: Homo sapiens; BSY-1, Br (Breast)
OVCAR-4 = experiment: JFCR39 cancer cell growth inhibition test, OVCAR-4; format: cell-based; conditions: Homo sapiens; OVCAR-4, Ov (Ovarian)
KM-12 = experiment: JFCR39 cancer cell growth inhibition test, KM-12; format: cell-based; conditions: Homo sapiens, KM12; KM-12, Co (Colon)
NCI-H23 = experiment: JFCR39 cancer cell growth inhibition test, NCI-H23; format: cell-based; conditions: Homo sapiens; NCI-H23, Lu (Lung)
U251 = experiment: JFCR39 cancer cell growth inhibition test, U251; format: cell-based; conditions: Homo sapiens, U-251; U251, CNS (Central Nervous Systems)
OVCAR-5 = experiment: JFCR39 cancer cell growth inhibition test, OVCAR-5; format: cell-based; conditions: Homo sapiens; OVCAR-5, Ov (Ovarian)
MCF-7 = experiment: JFCR39 cancer cell growth inhibition test, MCF-7; format: cell-based; conditions: Homo sapiens, MCF7; MCF-7, Br (Breast)
SF-268 = experiment: JFCR39 cancer cell growth inhibition test, SF-268; format: cell-based; conditions: Homo sapiens; SF-268, CNS (Central Nervous Systems)
SF-295 = experiment: JFCR39 cancer cell growth inhibition test, SF-295; format: cell-based; conditions: Homo sapiens; SF-295, CNS (Central Nervous Systems)
SNB-78 = experiment: JFCR39 cancer cell growth inhibition test, SNB-78; format: cell-based; conditions: Homo sapiens; SNB-78, CNS (Central Nervous Systems)
SNB-75 = experiment: JFCR39 cancer cell growth inhibition test, SNB-75; format: cell-based; conditions: Homo sapiens; SNB-75, CNS (Central Nervous Systems)
St-4 = experiment: JFCR39 cancer cell growth inhibition test, St-4; format: cell-based; conditions: Homo sapiens; St-4, St (Stomac)
L0X-IMVI = experiment: JFCR39 cancer cell growth inhibition test, L0X-IMVI; format: cell-based; conditions: Homo sapiens, Me (Melanoma)
DU-145 = experiment: JFCR39 cancer cell growth inhibition test, DU-145; format: cell-based; conditions: Homo sapiens; DU-145, xPg (Prostate)
ACHN = experiment: JFCR39 cancer cell growth inhibition test, ACHN; format: cell-based; conditions: Homo sapiens, Re (Renal)
A549 = experiment: JFCR39 cancer cell growth inhibition test, A549; format: cell-based; conditions: Homo sapiens; A549, Lu (Lung)
RXF-631L = experiment: JFCR39 cancer cell growth inhibition test, RXF-631L; format: cell-based; conditions: Homo sapiens, Re (Renal)
MKN74 = experiment: JFCR39 cancer cell growth inhibition test, MKN74; format: cell-based; conditions: Homo sapiens, MKN-74; MKN74, St (Stomac)
[2] = system: HDF cells (human dermal fibroblast cells); experiment: Inhibitory effect on HDF cells, control vs hypoxic and subnutritional conditions; format: cell-based; conditions: for IC50: Homo sapiens, HDF normal skin cells
Procedure: as §1
The cells used were two types of cancer cells, i.e., DLD-1 cells (human colorectal cancer cells) and Panc-1 cells (human pancreatic cells), as well as HDF cells (human dermal fibroblast cells).

MDA-MB-231 = experiment: JFCR39 cancer cell growth inhibition test, MDA-MB-231; format: cell-based; conditions: Homo sapiens; MDA-MB-231, Br (Breast)
PC-3 = experiment: JFCR39 cancer cell growth inhibition test, PC-3; format: cell-based; conditions: Homo sapiens; PC-3, xPg (Prostate)
HCT-15 = experiment: JFCR39 cancer cell growth inhibition test, HCT-15; format: cell-based; conditions: Homo sapiens; HCT-15, Co (Colon)
SF-539 = experiment: JFCR39 cancer cell growth inhibition test, SF-539; format: cell-based; conditions: Homo sapiens; SF-539, CNS (Central Nervous Systems)
MKN28 = experiment: JFCR39 cancer cell growth inhibition test, MKN28; format: cell-based; conditions: Homo sapiens, MKN-28; MKN28, St (Stomac)
NCI-H522 = experiment: JFCR39 cancer cell growth inhibition test, NCI-H522; format: cell-based; conditions: Homo sapiens; NCI-H522, Lu (Lung)

How did the GI50 (HCT-116) turn out when `C/C(=C\Cc1c(O)c(Cl)c(C)c(C=O)c1O)CC/C=C(\C)[C@@H]1CC(=O)C(C)(C)O1` (racemic) [Ascofuranone, dl-5-Chloro-2,4-dihydroxy-6-methyl-3-[(2E,6E)-3-methyl-7-(3,3-dimethyl-4-oxo-2-oxacyclopentyl)-2,6-octadienyl]benzaldehyde] was run?
The GI50 was 5.1 µM.

What about the GI50 (HT-29) of the same molecule?
The GI50 was 6.6 µM.

And the inhibition at 0.2 µM (human DHOD; read-out: DHOD inhibition rate (%) 200 nM, 200 nM compound)?
The inhibition at 0.2 µM was 73%.

And the IC50 (human DHOD; read-out: IC50 (nM) human DHOD (HsDHOD))?
Its IC50 is 38 nM.

What about the GI50 (MKN7) of the same molecule?
Its GI50 is 15 µM.

What about the GI50 (OVCAR-3) of the same molecule?
Its GI50 is 8 µM.

And the GI50 (SK-OV-3)?
The GI50 was 13 µM.

What about the GI50 (NCI-H460) of the same molecule?
Its GI50 is 2 µM.

What about the IC50 ([1]; read-out: IC50 [μM] 1% O2 glc(−)gln(−), Panc-1, 1% O2 glc(−)gln(−)) of the same molecule?
The IC50 was 1.4 µM.

What about the IC50 ([1]; Panc-1, 21% O2 glc(+)gln(+), read-out: IC50 [μM] 21% O2 glc(+)gln(+)) of the same molecule?
Its IC50 is greater than 100 µM.

What about the “Selectivity = 21% glc(+)gln(+) IC50/1% glc(−)gln(−) IC50” value ([1]; Panc-1) of the same molecule?
Its value is greater than 71.

What about the GI50 (HCC2998) of the same molecule?
Its GI50 is 17 µM.

What about the GI50 (BSY-1) of the same molecule?
Its GI50 is 16 µM.

And the GI50 (OVCAR-4)?
Its GI50 is 5.9 µM.

What about the GI50 (KM-12) of the same molecule?
The GI50 was 9.3 µM.

What about the GI50 (NCI-H23) of the same molecule?
The GI50 was 15 µM.

What about the GI50 (U251) of the same molecule?
Its GI50 is 1.5 µM.

What about the GI50 (OVCAR-5) of the same molecule?
Its GI50 is 7.6 µM.

What about the GI50 (MCF-7) of the same molecule?
The GI50 was 9 µM.

And the GI50 (SF-268)?
The GI50 was 7 µM.

What about the GI50 (SF-295) of the same molecule?
Its GI50 is 5.3 µM.

What about the GI50 (SNB-78) of the same molecule?
The GI50 was 23 µM.

What about the GI50 (SNB-75) of the same molecule?
Its GI50 is 23 µM.

And the GI50 (St-4)?
Its GI50 is 14 µM.

What about the GI50 (L0X-IMVI) of the same molecule?
The GI50 was 2.8 µM.

And the GI50 (DU-145)?
Its GI50 is 11 µM.

What about the GI50 (ACHN) of the same molecule?
Its GI50 is 10 µM.

And the GI50 (A549)?
The GI50 was 7.6 µM.

And the GI50 (RXF-631L)?
Its GI50 is 12 µM.

And the GI50 (MKN74)?
The GI50 was 13 µM.

And the “Selectivity = 21% glc(+)gln(+) IC50/1% glc(−)gln(−) IC50” value ([2]; HDF)?
Its value is greater than 63.

And the IC50 ([2]; read-out: IC50 [μM] 1% O2 glc(−)gln(−), 1% O2 glc(−)gln(−))?
The IC50 was 1.6 µM.

What about the IC50 ([2]; 21% O2 glc(+)gln(+), read-out: IC50 [μM] 21% O2 glc(+)gln(+)) of the same molecule?
Its IC50 is greater than 100 µM.

What about the GI50 (MDA-MB-231) of the same molecule?
The GI50 was 7.4 µM.

And the GI50 (PC-3)?
Its GI50 is 13 µM.

What about the GI50 (HCT-15) of the same molecule?
Its GI50 is 1.3 µM.

What about the GI50 (SF-539) of the same molecule?
Its GI50 is 1.7 µM.

What about the GI50 (MKN28) of the same molecule?
Its GI50 is 9.7 µM.

And the GI50 (NCI-H522)?
Its GI50 is 8.4 µM.
